Reference: ChEMBL document CHEMBL3046354, “Design, synthesis, and insecticidal activities of novel analogues of neonicotinoids: replacement of nitromethylene with nitroconjugated system” (2009)

Key:
Type in all cases: functional
[1] = system: Aphis craccivora; experiment: Insecticidal activity against Aphis craccivora (cowpea aphid) infested horsebean plant leaves assessed as insect mortality measured 24 hr post compound treatment by leaf-dip method
[2] = system: Aphis craccivora; experiment: Insecticidal activity against Aphis craccivora (cowpea aphid) infested horsebean plant leaves assessed as insect mortality at 500 mg/L measured 24 hr post compound treatment by leaf-dip method
[3] = system: Mythimna separata; experiment: Insecticidal activity against Mythimna separata (Oriental armyworm) second-instar larvae infested on compound pre-treated corn leaves assessed as insect mortality at 500 mg/L measured 48 hr post compound treatment by leaf-dip method
[4] = system: Mythimna separata; experiment: Insecticidal activity against Mythimna separata(Oriental armyworm) second-instar larvae infested on compound pre-treated corn leaves assessed as insect mortality measured 48 hr post compound treatment by leaf-dip method
[5] = system: Nephotettix cincticeps; experiment: Insecticidal activity against Nephotettix cincticeps (green rice leafhopper) grown on booting stage rice plant stems assessed as insect mortality measured 48 hr post compound treatment by leaf-dip method
[6] = system: Laodelphax striatellus; experiment: Insecticidal activity against Laodelphax striatella (small brown planthopper) grown on booting stage rice plant stems assessed as insect mortality measured 48 hr post compound treatment by leaf-dip method
[7] = system: Nephotettix cincticeps; experiment: Potency index, ratio of LC50 for imidacloprid to LC50 for test compound against Nephotettix cincticeps (green rice leafhopper) grown on booting stage rice plant stems assessed as insect mortality measured 48 hr post compound treatment by leaf-dip method
[8] = system: Laodelphax striatellus; experiment: Potency index, ratio of LC50 for imidacloprid to LC50 for test compound against Laodelphax striatella (small brown planthopper) grown on booting stage rice plant stems assessed as insect mortality measured 48 hr post compound treatment by leaf-dip method

Structure (SMILES) | LC50 [1] [µM] | mortality at 500 µg/mL [2] [%] | mortality at 500 µg/mL [3] [%] | LC50 [4] [µM] | LC50 [5] [µM] | LC50 [6] [µM] | RatioLC50 [7] | RatioLC50 [8]
Cc1cc(/C=C(/C2=NCCN2Cc2ccc(Cl)nc2)[N+](=O)[O-])oc1C | 4.65 | 100 | 0 |  |  |  |  | 
Cc1ccc(/C=C(/C2=NCCN2Cc2ccc(Cl)nc2)[N+](=O)[O-])s1 | 3.11 | 100 | 100 | 29.7 |  |  |  | 
O=[N+]([O-])/C(=C\c1cc(Br)cs1)C1=NCCN1Cc1ccc(Cl)nc1 |  | 0 | 0 |  |  |  |  | 
CCc1ccc(/C=C(/C2=NCCN2Cc2ccc(Cl)nc2)[N+](=O)[O-])o1 | 1.82 | 100 | 100 | 97.9 |  |  |  | 
O=[N+]([O-])/C(=C\c1ccc(Cl)o1)C1=NCCCN1Cc1ccc(Cl)nc1 | 60.9 | 100 | 96.7 |  |  |  |  | 
O=[N+]([O-])/C(=C\c1ccc(Br)o1)C1=NCCN1Cc1ccc(Cl)nc1 | 7.3 | 100 | 100 | 39.7 | 2.54 |  |  | 
O=[N+]([O-])/C(=C\c1ccc([N+](=O)[O-])o1)C1=NCCN1Cc1ccc(Cl)nc1 | 11.1 | 100 | 100 | 69.5 | 154 |  |  | 
Cc1ccc(/C=C(/C2=NCCN2Cc2ccc(Cl)nc2)[N+](=O)[O-])o1 | 6.34 | 100 | 100 | 53.1 | 4.05 |  |  | 
O=[N+]([O-])/N=C1\NCCN1Cc1ccc(Cl)nc1 [IMIDACLOPRID] | 35 | 100 |  |  | 20.9 | 49.8 |  | 
Cl.O=[N+]([O-])/C(=C\c1ccco1)C1=NCCN1Cc1ccc(Cl)nc1 | 3.72 | 100 | 100 | 24.7 | 1.3 | 7.23 | 16 | 6.9
O=[N+]([O-])/C(=C\c1ccco1)C1=NCCN1Cc1cnc(Cl)s1 | 3.5 | 100 | 100 | 107 |  |  |  | 
O=[N+]([O-])/C(=C\c1ccco1)C1=NCCN1Cc1ccccc1 |  | 0 | 46.6 |  |  |  |  | 
Cc1ccc(/C=C(/C2=NCCCN2Cc2ccc(Cl)nc2)[N+](=O)[O-])s1 | 24.6 | 100 | 63.3 |  |  |  |  | 
O=[N+]([O-])/C(=C\c1ccco1)C1=NCCCN1Cc1ccc(Cl)nc1 | 76.4 | 100 | 16.7 |  |  |  |  | 
Cl.O=[N+]([O-])/C(=C\c1cccs1)C1=NCCN1Cc1ccc(Cl)nc1 | 4.23 | 100 | 100 | 52.9 | 1.22 | 14 | 17.1 | 3.6
O=[N+]([O-])/C(=C\c1ccc[nH]1)C1=NCCN1Cc1ccc(Cl)nc1 | 11.2 | 100 | 100 | 39.7 |  |  |  | 
Cc1ccc(/C=C(/C2=NCCCN2Cc2ccc(Cl)nc2)[N+](=O)[O-])o1 | 698 | 100 | 33.3 |  |  |  |  | 
O=[N+]([O-])/C(=C\c1ccco1)C1=NCCN1Cc1ccc(Cl)cc1 | 234 | 98 | 67.2 |  |  |  |  | 
Cl.O=[N+]([O-])/C(=C\c1ccc(CO)o1)C1=NCCN1Cc1ccc(Cl)nc1 | 10.6 | 100 | 100 | 33.9 | 1.11 |  | 18.8 | 
O=[N+]([O-])/C(=C\c1ccoc1)C1=NCCN1Cc1ccc(Cl)nc1 | 4.46 | 100 | 100 | 55.3 |  |  |  | 
O=[N+]([O-])/C(=C\c1ccc(Cl)o1)C1=NCCN1Cc1ccc(Cl)nc1 | 7.54 | 100 | 100 | 37.6 |  |  |  | 
O=[N+]([O-])/C(=C\c1ccsc1)C1=NCCN1Cc1ccc(Cl)nc1 |  | 31.9 | 0 |  |  |  |  | 
O=[N+]([O-])/C(=C\c1cccs1)C1=NCCCN1Cc1ccc(Cl)nc1 | 20.5 | 100 | 73.3 |  |  |  |  | 
